Reference: patent publication US11471460B2, “Autophagy modulators for use in treating cancer” (The United States of America,as represented by the …, priority 2017, dated 2022)
Where two headings read alike, the source gives them in different places.

Experiments:
[1] = test system: melanoma A375 cells; experiment: A375 cell proliferation (crystal violet plate assay); format: cell-based, human
[2] = test system: osteosarcoma U2OS cells; experiment: Induction of cytoplasmic vacuoles (enlarged lysosomes) in U2OS cells, light microscopy; format: cell-based, human; conditions: for Concentration to induce LC3-II accumulation, inhibit proliferation or viability relative to concentration to observe vacuolization: same U2OS cells
Source text: Vehicle is the concentration of DMSO that was introduced by addition of compounds.
These effects are dependent on the compound selected, its concentration and the length of time cells are exposed to the compound.
(§1) Cells were obtained from the American Type Culture Collection. BORCS5-KO HeLa cells have been described previously. Osteosarcoma U2OS were routinely seeded in 6-well plates (0.5×10^5 cells/well) and cultured in Dulbecco's Modified Eagle's medium supplemented with L-Glutamine, 4.5 g/L Glucose, Sodium Pyruvate, Phenol Red, and either heat-inactivated or normal 10% fetal calf serum at 37° C. in 5% CO2. Approximately 15-19 hours later, the indicated compound was added in 1:1000 dilutions. Results were the same using either heat-inactivated or normal fetal calf serum. Melanoma A375, embryonic kidney 293T and human foreskin fibroblast Hs27 cells were cultured in the same medium, except that cells were seeded into 12-well plates at 10^3 cells/well.
Phase contrast photographs were taken on an Olympus CKX41 microscope. Confocal photographs were taken on a Leica TCS-SP5II. For immunofluorescence microscopy, the cells were fixed in 4% paraformaldehyde (Electron Microscopy Sciences, 15714) in PBS for 12 min, permeabilized with 0.2% Triton X-100 in PBS for 10 min, and blocked in 0.2% BSA (Sigma-Aldrich, A7030) in PBS for 30 min at 37° C. For endogenous LC3 staining, cells were permeabilized in methanol for 20 min at −20° C. after the paraformaldehyde fixation. The cells were sequentially incubated with primary antibodies (LAMP1: Developmental Studies Hybridoma Bank; LC3 and LAMTOR4: Cell Signaling Technology; FLAG epitope: Sigma-Aldrich) and secondary antibodies conjugated to Alexa Fluor dyes (Life Technologies) diluted with 0.2% BSA in PBS for 30 min at 37° C. Coverslips were mounted on glass slides using Fluoromount-G (Electron Microscopy Sciences, 17984-24). Cells were imaged using a Zeiss LSM880 with AiryScan confocal microscope (Carl Zeiss AG, Oberkochen, Germany) or a Leica TCS-SP5II. The final composite images were created and properly analyzed for lysosomal size examination using ImageJ (NIH).

[3] = test system: LC3-II and p62 in U2OS cells; experiment: Accumulation of autophagosome markers LC3-II and p62, Western immuno-blotting; format: cell-based, human; conditions: U2OS cells
Method: Cells were cultured for 4 hrs before total cell extracts were subjected to Western immuno-blotting for LC3, p62 and β-actin. Blot was developed with film. […] (C) U2OS cells were cultured for the times indicated in the presence of 1.2 μM compound 1 to produce 80% of the maximum observed in FIG. 10A. Total cell extracts were assayed at the times indicated. […] All blots were stained with Ponceau S […].
Total cell lysates were prepared (in 4× dye). Proteins were fractionated at 200V in a NuPAGE 4-12% bis-tris polyacrylamide gel (NP0323, Novex) using NuPAGE MES running buffer (NP0002, Novex) and then stained with PageBlue (24260, Thermo Scientific) in order to quantify the relative amount of histones in each sample. […] Proteins were wet-transferred onto nitrocellulose membranes (162-0112, Bio-Rad) using NuPAGE transfer buffer (NP-0006-1, Novex) for 1 hour at 30V. Membranes were then stained with dilute Ponceau S solution, blocked in 5% milk for 30 minutes at room temperature, and incubated overnight at 4° C. in primary antibody. Membranes were washed with phosphate buffered saline with tween 20 (PBST) three times for 10 min. each, incubated with secondary antibodies in 5% milk for 1 hour, washed three times with PBST again, covered in ECL (SuperSignal West Pico chemiluminescent substrate, 34080, Thermo Scientific) and exposed to film (HyBlot ES, E3218, Denville Scientific).

[4] = test system: embryonic kidney cells; experiment: Viability of embryonic kidney cells; format: cell-based; conditions: Homo sapiens
Method: (§2) FIG. 18 summarizes results from 13 human cell lines. All cells were seeded at the same cell density in a rich culture medium and assayed under identical conditions. Compound 1 efficacy is the ratio of cell viability with compound 1 to cell viability with chloroquine derivatives.
as §1, with “Results were the same using either heat-inactivated or normal fetal calf serum.” left out

[5] = test system: melanoma A375 cells; experiment: Cytoplasmic vacuolization of A375 cells; format: cell-based, human
[6] = test system: breast adenocarcinoma cells; experiment: Viability of breast adenocarcinoma cells; format: cell-based; conditions: Homo sapiens
Method: as §2

[7] = test system: human foreskin fibroblasts; experiment: Proliferation/viability of human foreskin fibroblasts; format: cell-based; conditions: Fibroblast
Method: Concentration of each compound in the plate assay is indicated below the compound 1 plate.
as §1, with “Results were the same using either heat-inactivated or normal fetal calf serum.” left out

[8] = biological target: T1, PIKFYVE (Homo sapiens, UniProt Q9Y2I7); experiment: DiscoverX KINOMEscan dissociation constant; format: binding
T1 construct: purchased DiscoverX (KINOMEscan service, San Diego, Calif.)
Method: Each kinase was tagged with a unique DNA sequence that allowed the amount of protein bound to the solid support to be quantified by PCR. The top three targets for compound 1 were PIKFYVE, PIP4K2C and MTOR. […] Dissociation constants (Kd) were determined from the amount of kinase captured on the solid support as a function of the test compound concentration (nM) on a log10 scale. Mean Kd values (±range) are given for each compound. The ratio of PIP4K2C to PIKFYVE indicates the relative specificity for these two kinases.
To address this hypothesis, a panel of 468 human kinases were screened for their ability to bind compound 1. […] The top two candidates were PIKFYVE (phosphoinositide kinase FYVE-type zinc finger containing) and PIP4K2C (phosphatidylinositol-5-phosphate 4-kinase). PIKFYVE is a kinase that is essential for mouse development (49) and that prevents endosome enlargement and cytoplasmic vacuolization (50, 51). PIP4K2C is a kinase that is not essential for mouse growth and viability, but it is essential for the immune system (52), mTORC1 signaling (53), and regulation of autophagy (54). The third candidate was MTOR, a kinase that regulates autophagy (55). Therefore, the binding constants (Kd) for all five members of the compound 1-family were determined for each of these three proteins from two independent titration curves, as shown for compound 1.

T1 sequence (Q9Y2I7 whole entry): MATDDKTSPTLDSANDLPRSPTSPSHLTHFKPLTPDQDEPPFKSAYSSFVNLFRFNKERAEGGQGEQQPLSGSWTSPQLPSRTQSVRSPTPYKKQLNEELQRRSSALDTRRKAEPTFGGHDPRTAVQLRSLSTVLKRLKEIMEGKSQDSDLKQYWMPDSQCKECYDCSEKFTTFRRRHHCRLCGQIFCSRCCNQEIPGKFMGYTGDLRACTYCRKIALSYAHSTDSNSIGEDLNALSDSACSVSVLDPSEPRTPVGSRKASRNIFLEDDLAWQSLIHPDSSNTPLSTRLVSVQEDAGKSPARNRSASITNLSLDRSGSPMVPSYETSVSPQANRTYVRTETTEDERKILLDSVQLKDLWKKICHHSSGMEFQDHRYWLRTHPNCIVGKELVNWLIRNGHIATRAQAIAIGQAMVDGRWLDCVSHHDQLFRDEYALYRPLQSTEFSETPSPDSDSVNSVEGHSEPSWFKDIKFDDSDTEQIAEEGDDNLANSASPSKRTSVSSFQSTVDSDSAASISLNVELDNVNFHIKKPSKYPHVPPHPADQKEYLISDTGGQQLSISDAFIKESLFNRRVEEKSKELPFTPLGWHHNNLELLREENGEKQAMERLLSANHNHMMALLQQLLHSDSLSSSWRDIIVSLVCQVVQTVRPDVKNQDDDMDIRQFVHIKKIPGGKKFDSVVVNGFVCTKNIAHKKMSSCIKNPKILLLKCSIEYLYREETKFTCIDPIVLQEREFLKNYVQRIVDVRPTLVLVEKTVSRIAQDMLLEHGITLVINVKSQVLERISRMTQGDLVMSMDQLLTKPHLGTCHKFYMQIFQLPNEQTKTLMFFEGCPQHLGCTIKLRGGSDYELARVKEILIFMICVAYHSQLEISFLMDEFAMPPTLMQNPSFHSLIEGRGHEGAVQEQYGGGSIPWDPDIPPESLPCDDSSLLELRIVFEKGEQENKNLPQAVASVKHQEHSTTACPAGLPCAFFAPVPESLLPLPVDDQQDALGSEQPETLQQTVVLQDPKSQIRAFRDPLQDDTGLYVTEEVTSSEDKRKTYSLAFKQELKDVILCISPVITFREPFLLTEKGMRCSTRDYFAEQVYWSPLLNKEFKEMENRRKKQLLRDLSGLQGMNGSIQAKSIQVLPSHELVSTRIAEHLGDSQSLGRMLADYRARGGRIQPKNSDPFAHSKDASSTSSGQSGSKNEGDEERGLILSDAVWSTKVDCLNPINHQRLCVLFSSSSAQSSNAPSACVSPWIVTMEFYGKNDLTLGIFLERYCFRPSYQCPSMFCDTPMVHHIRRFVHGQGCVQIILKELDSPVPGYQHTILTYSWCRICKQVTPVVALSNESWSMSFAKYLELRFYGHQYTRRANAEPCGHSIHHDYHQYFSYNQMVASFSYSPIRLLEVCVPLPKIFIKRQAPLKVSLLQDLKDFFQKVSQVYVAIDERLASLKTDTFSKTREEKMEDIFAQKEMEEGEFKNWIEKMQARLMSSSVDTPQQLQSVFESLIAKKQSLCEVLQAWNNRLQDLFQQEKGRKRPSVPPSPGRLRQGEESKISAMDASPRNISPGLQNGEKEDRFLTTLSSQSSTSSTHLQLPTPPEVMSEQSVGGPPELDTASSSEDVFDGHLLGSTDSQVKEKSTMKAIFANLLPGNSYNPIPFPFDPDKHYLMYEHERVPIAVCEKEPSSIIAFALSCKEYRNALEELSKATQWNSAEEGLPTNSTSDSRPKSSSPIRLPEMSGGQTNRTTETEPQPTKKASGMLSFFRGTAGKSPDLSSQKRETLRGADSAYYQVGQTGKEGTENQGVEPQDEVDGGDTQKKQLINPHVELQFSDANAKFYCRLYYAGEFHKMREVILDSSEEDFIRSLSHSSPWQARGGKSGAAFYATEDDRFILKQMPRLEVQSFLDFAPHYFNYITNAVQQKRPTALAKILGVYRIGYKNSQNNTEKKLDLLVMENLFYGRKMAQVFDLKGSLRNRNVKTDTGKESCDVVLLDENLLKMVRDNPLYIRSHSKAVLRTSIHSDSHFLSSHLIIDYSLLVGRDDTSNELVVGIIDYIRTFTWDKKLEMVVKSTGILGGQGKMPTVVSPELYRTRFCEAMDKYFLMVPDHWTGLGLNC

## Cc1cccc(/C=N/Nc2cc(N3CCOCC3)nc(OCCc3ccccn3)n2)c1 [Apilimod]
[1]
  Inhibition of proliferation of melanoma A375 cells: effective

## CO/C1=C\C(C)=C\[C@@H](C)[C@@H](O)[C@@H](C)C/C(C)=C/C=C/[C@H](OC)[C@@H]([C@@H](C)[C@@H](O)[C@H](C)[C@@]2(O)C[C@@H](O)[C@H](C)[C@@H](C(C)C)O2)OC1=O [BafA1, Bafilomycin-A1, reference compound]
[2]; U2OS cells
  Induction of vacuoles / enlarged lysosomes: did not induce formation of enlarged lysosomes
[2]; U2OS cells, BafA1 together with compound 1
  Effect on vacuole accumulation induced by the compounds of the invention: prevented induction of vacuole accumulation
[3]
  Accumulation of LC3-II: induced the accumulation of LC3-II

## CCN(CC)CCCC(C)Nc1ccnc2cc(Cl)ccc12 (stereo not shown) [CQ, chloroquine]
[4]
  EC50: > 10 µM
[5]
  Cytoplasmic vacuolization of A375 cells: not observed
[6]
  EC50: > 10 µM
[1]
  Inhibition of proliferation of melanoma A375 cells: inhibited A375 cell proliferation
[7]; Homo sapiens
  EC50: > 10 µM

## CCN(CCO)CCCC(C)Nc1ccnc2cc(Cl)ccc12 (stereo not shown) [HCQ, hydroxychloroquine]
[4]; embryonic kidney cells, read-out: EC50
  EC50: > 10 µM
[5]
  Cytoplasmic vacuolization of A375 cells: not observed
[6]; breast adenocarcinoma cells, read-out: EC50
  EC50: > 10 µM
[1]
  Inhibition of proliferation of melanoma A375 cells: inhibited A375 cell proliferation
[7]; human foreskin fibroblasts, read-out: EC50
  EC50: > 10 µM

## Ic1cccc(/C=N/Nc2nc(N3CCOCC3)nc(N(c3ccccc3)c3ccccc3)n2)c1 [Vacuolin]
[1]
  Inhibition of proliferation of melanoma A375 cells: effective

## Nc1ccc(C(=O)Nc2cccc(-c3nc(N4CCOCC4)c4oc5ncccc5c4n3)c2)cn1 [YM201636]
[1]
  Inhibition of proliferation of melanoma A375 cells: effective

## Fc1ccc(Nc2nc(N3CCOCC3)nc(N3CCOCC3)n2)cc1Cl [compound 2]
[2]
  Concentration to induce LC3-II accumulation, inhibit proliferation or viability relative to concentration to observe vacuolization: two to three-fold

## CCc1ccc(Nc2nc(N3CCOCC3)nc(N3CCOCC3)n2)cc1 [compound 3]
[8]; mean of two independent titration curves
  Kd: 0.016 µM
[2]
  Concentration to induce LC3-II accumulation, inhibit proliferation or viability relative to concentration to observe vacuolization: two to three-fold

## Cc1cccc(/C=N/Nc2cc(N3CCOCC3)nc(N3CCOCC3)n2)c1 [compound 4]
[8]
  Standing within the family for PIKFYVE binding: the most specific
[2]
  Concentration to induce LC3-II accumulation, inhibit proliferation or viability relative to concentration to observe vacuolization: about 10 fold

## C(=N\Nc1cc(N2CCOCC2)nc(N2CCOCC2)n1)/c1ccccc1 [compound 5]
[2]
  Concentration to induce LC3-II accumulation, inhibit proliferation or viability relative to concentration to observe vacuolization: about 15 fold
